{"source": "patent US20100298141A1", "about": "“SUBSTITUTED PYRIDINE N-OXIDE HERBICIDES” (E. I. DU PONT DE NEMOURS AND COMPANY, priority 2007, published 2010)", "key": {"redroot pigweed": {"tested_on": "redroot pigweed", "test": "Test A pre-/postemergence greenhouse test", "assay_type": "in vivo, Amaranthus retroflexus", "details": "for Pigweed plant response rating: 0 to 100 scale", "method_in_brief": "(§1)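 Test compounds in non-phytotoxic solvent with surfactant were applied as a preemergence soil spray to seeded loam/sand pots and, concurrently, postemergence to plants at 2–10 cm, one- to two-leaf stage. About ten days in greenhouse, then injury visually rated against untreated controls.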"}, "corn": {"tested_on": "corn", "test": "Test A pre-/postemergence greenhouse test", "assay_type": "in vivo, Zea mays", "details": "for Corn plant response rating: 0 to 100 scale", "method_in_brief": "as §1"}, "blackgrass": {"tested_on": "blackgrass", "test": "Test C pre-/postemergence test", "assay_type": "in vivo, Alopecurus myosuroides", "method_in_brief": "(§2)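 Seeds were planted and treated preemergence with test chemical in a non-phytotoxic solvent mixture containing surfactant. Postemergence applications of the same formulation went onto plants 2 to 18 cm tall (1- to 4-leaf stage). A dash marks no test result.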"}, "wheat": {"tested_on": "wheat", "test": "Test C pre-/postemergence test", "assay_type": "in vivo, Triticum aestivum", "details": "for Wheat plant response rating: preemergence, scale 0 (no effect) to 100 (complete control)", "method_in_brief": "as §2"}, "wild oat": {"tested_on": "wild oat", "test": "Test C pre-/postemergence test", "assay_type": "in vivo, Avena fatua", "method_in_brief": "as §2"}, "catchweed bedstraw": {"tested_on": "catchweed bedstraw", "test": "Test C pre-/postemergence test", "assay_type": "in vivo, Galium aparine", "from_the_text": "Seeds of plant species selected from blackgrass (Alopecurus myosuroides), downy brome (Bromus tectorum), green foxtail (Setaria viridis), Italian ryegrass (Lolium multiflorum), wheat (Triticum aestivum), wild oat (Avena fatua), catchweed bedstraw (Galium aparine), Russian thistle (Salsola kali), […] (Cynodon dactylon), Surinam grass (Brachiaria decumbens), cocklebur (Xanthium strumarium), corn (Zea mays), crabgrass (Digitaria sanguinalis), woolly cupgrass (Eriochloa villosa), giant foxtail (Setaria faberii), Goosegrass (Eleusin indica), johnsongrass (Sorghum halepense), kochia (Kochia scoparia), lambsquarters (Chenopodium album), morningglory (Ipomoea coccinea), eastern black nightshade (Solanum ptycanthum), yellow nutsedge (Cyperus esculentus), pigweed (Amaranthus retroflexus), common ragweed (Ambrosia elation), soybean (Glycine max), common (oilseed) sunflower (Helianthus annuus), and velvetleaf (Abutilon theophrasti) were planted and treated preemergence with test chemicals formulated in a non-phytotoxic solvent mixture which included a surfactant. At the same time, plants selected from these crop and weed species and also winter barley (Hordeum vulgare), canarygrass (Phalaris minor), and chickweed (Stellaria media) were treated with postemergence applications of some of the test chemicals formulated in the same manner. Plants ranged in height from 2 to 18 cm (1- to 4-leaf stage) for postemergence treatments. […] At time of treatment, test pots were flooded to 3 cm above the soil surface, treated by application of test compounds directly to the paddy water, and then maintained at that water depth for the duration of the test. […] A dash (-) response means no test result."}, "bermudagrass": {"tested_on": "bermudagrass", "test": "Test C pre-/postemergence test", "assay_type": "in vivo, Cynodon dactylon", "method_in_brief": "as §2"}, "Surinam grass": {"tested_on": "Surinam grass", "test": "Test C pre-/postemergence test", "assay_type": "in vivo, Brachiaria decumbens", "details": "for Surinam Grass plant response rating: preemergence, scale 0 (no effect) to 100 (complete control)", "method_in_brief": "as §2"}, "crabgrass": {"tested_on": "crabgrass", "test": "Test C pre-/postemergence test", "assay_type": "in vivo, Digitaria sanguinalis", "method_in_brief": "as §2"}, "kochia": {"tested_on": "kochia", "test": "Test C pre-/postemergence test", "assay_type": "in vivo, Kochia scoparia", "method_in_brief": "as §2"}, "eastern black nightshade": {"tested_on": "eastern black nightshade", "test": "Test C pre-/postemergence test", "assay_type": "in vivo, Solanum ptycanthum", "method_in_brief": "as §2"}, "pigweed": {"tested_on": "pigweed", "test": "Test C pre-/postemergence test", "assay_type": "in vivo, Amaranthus retroflexus", "method_in_brief": "as §2"}, "[1]": {"tested_on": "common (oilseed) sunflower", "test": "Test C pre-/postemergence test", "assay_type": "in vivo, Helianthus annuus", "details": "for Sunflower plant response rating: preemergence, scale 0 (no effect) to 100 (complete control)", "method_in_brief": "as §2"}, "rice": {"tested_on": "rice", "test": "Test C flooded paddy test", "assay_type": "in vivo, Oryza sativa", "details": "Flood", "method_in_brief": "(§3)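 Visual injury ratings against untreated controls, taken 13 to 15 days after compound was added to paddy water standing 3 cm above the soil.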"}, "barnyardgrass": {"tested_on": "barnyardgrass", "test": "Test C flooded paddy test", "assay_type": "in vivo, Echinochloa crus-galli", "details": "Flood", "method_in_brief": "as §3"}, "[2]": {"details": "Postemergence, 125 g ai/ha, 0 is no effect, 100 is complete control"}, "[3]": {"details": "Postemergence, 500 g ai/ha, 0 is no effect, 100 is complete control"}, "[4]": {"details": "Preemergence, 125 g ai/ha, 0 no effect, 100 complete control"}, "[5]": {"details": "Preemergence, 500 g ai/ha, 0 to 100 scale where 0 is no effect and 100 is complete control"}, "[6]": {"details": "31 g ai/ha, Preemergence, scale 0 to 100"}, "[7]": {"details": "62 g ai/ha, preemergence, scale 0 (no effect) to 100 (complete control)"}, "[8]": {"details": "preemergence, 125 g ai/ha, scale 0 (no effect) to 100 (complete control)"}, "[9]": {"details": "31 g ai/ha, scale 0 to 100 (0 no effect, 100 complete control)"}, "[10]": {"details": "62 g ai/ha, scale 0 to 100, 0 no effect, 100 complete control, 13 to 15 days"}, "[11]": {"details": "125 g ai/ha, scale 0 to 100, 0 no effect, 100 complete control, 13 to 15 days"}, "[12]": {"details": "250 g ai/ha, scale 0 to 100 (0 no effect, 100 complete control)"}}}
{"smiles": "Cn1nc(C(F)(F)F)c(CS(=O)(=O)c2cccc[n+]2[O-])c1OC(F)F", "note": "[Compound 4]", "values": [{"measurement": "Pigweed plant response rating", "setting": "redroot pigweed; [2]", "value": 70}, {"measurement": "Pigweed plant response rating", "setting": "redroot pigweed; [3]", "value": 80}, {"measurement": "Pigweed plant response rating", "setting": "redroot pigweed; [4]", "value": 100}, {"measurement": "Plant response rating, Pigweed", "setting": "redroot pigweed; [5]", "value": 100}, {"measurement": "Corn plant response rating", "setting": "corn; [2]", "value": 30}, {"measurement": "Corn plant response rating", "setting": "corn; [3]", "value": 60}, {"measurement": "Corn plant response rating", "setting": "corn; [4]", "value": 20}, {"measurement": "Plant response rating, Corn", "setting": "corn; [5]", "value": 80}, {"measurement": "Blackgrass plant response rating", "setting": "blackgrass; [6]", "value": 70}, {"measurement": "Blackgrass plant response rating", "setting": "blackgrass; [7]", "value": 80}, {"measurement": "Plant response rating (0 to 100), Blackgrass", "setting": "blackgrass; Preemergence, 250 g ai/ha", "value": 100}, {"measurement": "Blackgrass plant response rating", "setting": "blackgrass; [8]", "value": 95}, {"measurement": "Wheat plant response rating", "setting": "wheat; 62 g ai/ha", "value": 20}, {"measurement": "Plant response rating (0 to 100), Wheat", "setting": "wheat; Preemergence, 250 g ai/ha", "value": 50}, {"measurement": "Wheat plant response rating", "setting": "wheat; 125 g ai/ha", "value": 20}, {"measurement": "Oat, Wild plant response rating", "setting": "wild oat; [6]", "value": 10}, {"measurement": "Oat, Wild plant response rating", "setting": "wild oat; [7]", "value": 50}, {"measurement": "Plant response rating (0 to 100), Oat, Wild", "setting": "wild oat; Preemergence, 250 g ai/ha", "value": 70}, {"measurement": "Oat, Wild plant response rating", "setting": "wild oat; [8]", "value": 65}, {"measurement": "Galium plant response rating", "setting": "catchweed bedstraw; [6]", "value": 70}, {"measurement": "Galium plant response rating", "setting": "catchweed bedstraw; [7]", "value": 90}, {"measurement": "Plant response rating (0 to 100), Galium", "setting": "catchweed bedstraw; Preemergence, 250 g ai/ha", "value": 100}, {"measurement": "Galium plant response rating", "setting": "catchweed bedstraw; [8]", "value": 100}, {"measurement": "Bermudagrass plant response rating", "setting": "bermudagrass; [6]", "value": 100}, {"measurement": "Bermudagrass plant response rating", "setting": "bermudagrass; [7]", "value": 100}, {"measurement": "Plant response rating (0 to 100), Bermudagrass", "setting": "bermudagrass; Preemergence, 250 g ai/ha", "value": 100}, {"measurement": "Bermudagrass plant response rating", "setting": "bermudagrass; [8]", "value": 100}, {"measurement": "Surinam Grass plant response rating", "setting": "Surinam grass; 62 g ai/ha", "value": 100}, {"measurement": "Plant response rating (0 to 100), Surinam Grass", "setting": "Surinam grass; Preemergence, 250 g ai/ha", "value": 100}, {"measurement": "Surinam Grass plant response rating", "setting": "Surinam grass; 125 g ai/ha", "value": 100}, {"measurement": "Crabgrass, Large plant response rating", "setting": "crabgrass; [6]", "value": 98}, {"measurement": "Crabgrass, Large plant response rating", "setting": "crabgrass; [7]", "value": 100}, {"measurement": "Plant response rating (0 to 100), Crabgrass, Large", "setting": "crabgrass; Preemergence, 250 g ai/ha", "value": 100}, {"measurement": "Crabgrass, Large plant response rating", "setting": "crabgrass; [8]", "value": 100}, {"measurement": "Kochia plant response rating", "setting": "kochia; [6]", "value": 0}, {"measurement": "Kochia plant response rating", "setting": "kochia; [7]", "value": 100}, {"measurement": "Plant response rating (0 to 100), Kochia", "setting": "kochia; Preemergence, 250 g ai/ha", "value": 100}, {"measurement": "Kochia plant response rating", "setting": "kochia; [8]", "value": 100}, {"measurement": "Nightshade plant response rating", "setting": "eastern black nightshade; [6]", "value": 90}, {"measurement": "Nightshade plant response rating", "setting": "eastern black nightshade; [7]", "value": 100}, {"measurement": "Plant response rating (0 to 100), Nightshade", "setting": "eastern black nightshade; Preemergence, 250 g ai/ha", "value": 100}, {"measurement": "Nightshade plant response rating", "setting": "eastern black nightshade; [8]", "value": 100}, {"measurement": "Pigweed plant response rating", "setting": "pigweed; [6]", "value": 100}, {"measurement": "Pigweed plant response rating", "setting": "pigweed; [7]", "value": 100}, {"measurement": "Plant response rating (0 to 100), Pigweed", "setting": "pigweed; Preemergence, 250 g ai/ha", "value": 100}, {"measurement": "Pigweed plant response rating", "setting": "pigweed; [8]", "value": 100}, {"measurement": "Sunflower plant response rating", "setting": "[1]; 62 g ai/ha", "value": 10}, {"measurement": "Plant response rating (0 to 100), Sunflower", "setting": "[1]; Preemergence, 250 g ai/ha", "value": 80}, {"measurement": "Sunflower plant response rating", "setting": "[1]; 125 g ai/ha", "value": 15}, {"measurement": "Plant response rating, Rice", "setting": "rice; [9]", "value": 10}, {"measurement": "Plant response rating, Rice", "setting": "rice; [10]", "value": 30}, {"measurement": "Plant response rating, Rice", "setting": "rice; [11]", "value": 70}, {"measurement": "Plant response rating, Rice", "setting": "rice; [12]", "value": 80}, {"measurement": "Plant response rating, Barnyardgrass", "setting": "barnyardgrass; [9]", "value": 0}, {"measurement": "Plant response rating, Barnyardgrass", "setting": "barnyardgrass; [10]", "value": 35}, {"measurement": "Plant response rating, Barnyardgrass", "setting": "barnyardgrass; [11]", "value": 85}, {"measurement": "Plant response rating, Barnyardgrass", "setting": "barnyardgrass; [12]", "value": 90}]}
